Consider 87 molecules from a melting point compilation (Tetko et al.; mined from patent text by program, amines drawn as free bases though some values may be those of a salt).

Usually melting point stands for the temperature of the solid-liquid transition. `CCOCCn1c(N2CCCN(CCC3(c4cccc(Cl)c4)CCN(C(=O)c4cc(OC)c(OC)c(OC)c4)C3)CC2)nc2ccccc21` (configuration not stated) came in with a melting point of 66 to 78 °C.

Take `O=C(Cn1ncc(-c2ccccc2)c1-c1ccccc1)NCCN1CCCC1`: the melting point was in the range of 80 to 84 °C.

In the case of `Clc1ccc(Cl)c(CN2CCNc3ncc(-c4ccc(Cl)nc4)cc32)c1`, the melting point worked out at 205 °C.

Molecule `CCc1ccc(Cc2c(OCc3ccccc3)n[nH]c2C)cc1` had a melting point of 80 to 83 °C.

In turn, `CCOC(=O)C1CN(CC)c2nc(SC)ncc2C1=O` (configuration not stated) gave a melting point of 157 °C.

With `Cc1ccc(O)cc1C=O`, the melting point fell in the range of 116 to 118 °C.

The molecule `CC(Cl)(Cl)C(NC(=O)c1cccs1)NC(=NC#N)Nc1ccc(Cl)nc1` (configuration not stated) registered a melting point of 201 to 203 °C.

Take `CC(C)c1nc2c(N)nc3ccccc3c2n1CCOc1ccccc1`: the melting point lay in the range of 229 to 231 °C.

`CCCN(CCC)C(=O)Cn1c(-c2cccc(Br)c2)nc2cccnc21` had a melting point of 125 to 127 °C.

`CCCCCS(=O)(=O)NC(=O)/C=C/c1ccc(OCCOC)cc1NC(=O)c1ccc(Cl)cc1Cl` registered a melting point of 177 °C.

As to `COc1ccc2ccc(N3C(=O)c4ccccc4C3CC(=O)CCN(C)C)nc2n1` (configuration not stated), the melting point came to 140 °C.

For the molecule `CCC(CSC#N)Nc1ccc(Cl)cc1[N+](=O)[O-]` (configuration not stated), the melting point is 126 to 128 °C.

`O=c1ccn(-c2ccccc2OC(F)F)nc1-c1ccnn1-c1ccccc1` registered a melting point of 123 to 124 °C.

The molecule `CN(N)C(=O)NC1c2ccccc2Oc2ccccc21` showed a melting point of 173 to 176 °C.

`CCCCCC(C)NC1=NS(=O)(=O)c2sc(Cl)cc2N1` (configuration not stated) came in with a melting point of 158 to 162 °C.

Consider `N#CC=C1CC2(CCCC2)c2ccccc21`, for which the melting point was determined as 82 °C.

With `CCOc1cc(CC)ccc1C1CCN(CCCCNC(=O)c2ccc(NC(=O)c3ccc(Cl)cc3)cc2)CC1`, the melting point amounted to 250 °C.

With `O=P(Oc1ccc(Oc2ccccc2)cc1)(Oc1ccc(Oc2ccccc2)cc1)c1ccccc1`, the melting point was in the range of 92 to 93 °C.

Turning to `NC1=Nc2cccc3c(=O)[nH]nc(c23)N1`, the melting point is > 300 °C.

In turn, `COc1ccc(CCC(=O)CCI)cc1` returned a melting point of 38 to 42 °C.

`N=C(N)NCCC[C@@H](NC(=O)C(c1ccccc1)c1ccccc1)C(=O)NCc1ccc(CCC(N)=O)cc1` yielded a melting point of 207 to 208 °C.

For the molecule `O=S(=O)(CC(F)(F)F)c1nc2cc(F)ccc2[nH]1`, the melting point lay within 160 to 162 °C.

In turn, `CC(C)(C)OC(=O)NCCCSc1ccncc1` returned a melting point of 72 to 74 °C.

As for `CCCC1=C([N+](=O)[O-])C(c2cccc3ccccc23)c2c[nH]nc2N1` (configuration not stated), the melting point stood at 226 °C.

Turning to `COC(=O)c1cccc(Nc2nc(Cl)nc3[nH]cnc23)c1`, the melting point came to 242 °C.

Regarding `Cc1cccc(-c2[nH]c(C(C)C)nc2-c2cccc(-c3ccc(C(N)=O)cn3)c2)n1`, the melting point lay in the range of 138 to 144 °C.

Turning to `CC(C)c1ccc(N(Cc2ccc(N(C)C)cc2)C(=O)C2CCCc3cc(OCc4ccccc4)ccc32)cc1` (configuration not stated), the melting point fell in the range of 107 to 109 °C.

`CN1CCN(c2ccccc2C=CC(=O)NCc2ccc(Cl)cc2)CC1` registered a melting point of 193 to 194 °C.

As for `Cc1cc(-c2ccc(C#N)cc2)cn2cc(-c3ccc(C#N)cc3)nc12`, the melting point lay within 283 to 285 °C.

`CC(=C1SCCCS1)c1ccc(Oc2ccc(S(C)=O)cc2)cc1` (configuration not stated) came in with a melting point of 132 °C.

As to `CN1C(=O)NC2(CCN(C(=O)OC(C)(C)C)CC2)C1=O`, the melting point fell in the range of 206 to 208 °C.

In the case of `CCCCOCCOc1ccc(-c2ccc3c(c2)C=C(C(=O)Nc2ccc(S(=O)Cc4ncon4)cc2)CCN3CC(C)C)cc1` (configuration not stated), the melting point fell in the range of 142 to 144 °C.

`O=c1c2c[nH]c3c(c-2nn1-c1ccc(Cl)cc1)CCC3`: the melting point was > 350 °C.

For `CC(C)(c1ccc(C(O)(C(F)(F)F)C(F)(F)F)cc1)S(=O)(=O)c1ccccc1`, the melting point was determined as 185 °C.

The molecule `CN(C(=O)[C@H]1CC[C@@H](c2ccccc2)N1C(=O)OC(C)(C)C)c1ccccc1` (racemic) registered a melting point of 132 °C.

Consider `CCCn1ncnc1COc1nc2c(nnn2-c2ccccc2)c2ccccc12`, for which the melting point lay within 154 to 156 °C.

As for `CC(=O)NCC1CN(c2ccc(N3CCC(C(C#N)CO)CC3)c(F)c2)C(=O)O1` (configuration not stated), the melting point was in the range of 136 to 138 °C.

On to `Cc1ccc(N2CCN(Cc3n[nH]c4c(F)cccc34)CC2)cc1`, for which the melting point was in the range of 176 to 177 °C.

Take `CCCC(=O)Oc1cc([N+](=O)[O-])cc([N+](=O)[O-])c1O`: the melting point lay in the range of 65 to 70 °C.

In turn, `COc1cc2c(cc1OC)-c1c(-c3ccccc3)sc(=N)n1CC2` displayed a melting point of 123 to 125 °C.

The molecule `COc1ccc(C2CNC(=O)C2)cc1I` (configuration not stated) yielded a melting point of 158 °C.

Turning to `C[C@H](/C=C\c1ccc(Cc2ccc(F)cc2)s1)N(O)C(N)=O`, the melting point lay in the range of 123 to 124 °C.

Molecule `OC(CNCCCc1ccccc1)COc1cccc2[nH]ncc12` (configuration not stated) yielded a melting point of 122 to 124 °C.

As for `CCCCCCCCCCCC(=O)Oc1ccc2nc(S(N)(=O)=O)sc2c1`, the melting point was in the range of 112 to 114 °C.

The molecule `Cc1cc(C2CCN(S(=O)(=O)C(C)(C)C(=O)NO)CC2)ccc1-c1cccc(OC[C@@H](O)CO)c1` returned a melting point of 152 to 154 °C.

In turn, `Fc1ccc(-c2cc(C(F)(F)F)n3cnc(-c4cccnc4)c3n2)cc1Cl` showed a melting point of 188 °C.

`ON=C1CCCCCCC1Cc1ccccc1` (configuration not stated) yielded a melting point of 117 to 119 °C.

`CC=COC(=O)c1c(S(=O)(=O)NC(=O)Nc2nc(C)cc(C)n2)c(C)nn1C` had a melting point of 180 to 183 °C.

In the case of `C#CCc1c(C)cc(=O)n(O)c1-c1ccccc1`, the melting point came to 200 °C.

For the molecule `O=C(Nc1ccc2ccc(Cl)nc2n1)c1ccccc1Cl`, the melting point was determined as 180 °C.

Molecule `CC(=O)SCSc1ncn(C(c2ccccc2)(c2ccccc2)c2ccccc2)n1` returned a melting point of 124 to 125 °C.

For `CC1(C)CCC(C)(C)c2c(OCc3ccc(F)cc3)cc(C(=O)/C=C/c3ccc(C(=O)O)cc3)cc21`, the melting point came to 241 °C.

`CN(C)CC1CCN(c2nc(N3CCCCC3)c3ncnc(N(C)Cc4cccc5ccccc45)c3n2)CC1`: the melting point was in the range of 150 to 151 °C.

As to `Cn1cncc1C(O)(c1ccc(Cl)cc1)c1ccc2c(c1)C(c1cccc(Cl)c1)Nc1nnnn1-2` (configuration not stated), the melting point amounted to 212 °C.

Turning to `CC(C)(C)OC(=O)N1CCN(C(=O)c2ccc3n2Cc2ccccc2N(C(=O)C2=CC=C(c4ccccc4)C(C)(C(F)(F)F)C2)C3)CC1` (configuration not stated), the melting point fell in the range of 104 to 121 °C.

As to `COc1ccc(-n2nnc(-c3ccc(Cl)cc3Cl)c2N)cc1`, the melting point lay within 155 to 164 °C.

Turning to `Cc1ccnc(N2CCN(CCc3c(C)n4c5c(cc(NC(=O)c6ccccc6)cc35)CCC4)CC2)c1`, the melting point turned out to be 218 °C.

`COc1ccc(C=O)c(-c2ccc(O[Si](C)(C)C(C)(C)C)cc2)c1O` gave a melting point of 103 to 106 °C.

Take `CC(C)S(=O)(=O)n1c(N)nc2ccc(C(=CC(N)=O)c3ccccc3)cc21`: the melting point was 211 to 212 °C.

`COc1cc2c(c3c1OC(C)(C)C3)C(c1cccc(-c3ccc(N)nc3)c1)=NC(C)(C)C2` had a melting point of 165 to 168 °C.

`C#Cc1c(-c2ccc(OC(F)F)c(OC3CC3)c2)[nH]c2cn[nH]c(=O)c12`: the melting point is > 300 °C.

In turn, `CCOC(=O)CNc1c(N)c(=O)c1=O` registered a melting point of 231 to 233 °C.

As to `CC(C)(C)OC(=O)N1CCC[C@H]1CNc1ccc2nccn2n1`, the melting point was 161 to 162 °C.

`CCOC(=O)CCc1ccc(CCNS(=O)(=O)CCc2ccc(Cl)cc2)cc1`: the melting point fell in the range of 77 to 78 °C.

Molecule `CCCCCCCCC1(CCCCCCCC)c2cc([N+](=O)[O-])ccc2-c2ccc([N+](=O)[O-])cc21` gave a melting point of 69 to 73 °C.

`CCC(=O)C1c2cccc(O)c2C(=O)c2c(O)cccc21` displayed a melting point of 115 °C.

Regarding `CC(C)(C)C(O)C(CC1CCCCC1)n1cncn1` (configuration not stated), the melting point is 104 to 107 °C.

Molecule `CC(C)(C)C(=O)Nc1cc(Cl)c(Cl)cn1` returned a melting point of 105 to 106 °C.

As for `COCc1cc2c3ccccc3n(C)c(=O)n2n1`, the melting point fell in the range of 98 to 100 °C.

With `O=C(Oc1ccccc1)N1CCC2(CC1)SC(c1ccc(F)cc1)c1ccccc12` (configuration not stated), the melting point lay within 200 to 201 °C.

The molecule `CCOC(=O)CCc1nc2cc3c(cc2[nH]1)NC(=O)C3(C)C` came in with a melting point of 194 to 196 °C.

Molecule `CCCCOC(=O)COc1ccc(C(=O)Nc2ccccc2Sc2cc(OC)ccc2-c2nnn[nH]2)cc1` returned a melting point of 169 to 171 °C.

As to `Cc1ccc(CCCC(=O)O)cc1C`, the melting point was in the range of 50 to 51 °C.

Take `CCOC(=CC=O)C1CCC2C3CCC4CC(O)CCC4(C)C3C(=O)CC12C` (configuration not stated): the melting point was 175 to 178 °C.

`CC(C)OC(=O)n1c(Cc2ccccc2)noc1=O` had a melting point of 80 °C.

In turn, `OP(O)C(NC(c1ccccc1)c1ccccc1)C1CCCCC1` (configuration not stated) yielded a melting point of 199 °C.

In turn, `NC(=O)C1CCc2cc(S(=O)(=O)Cl)ccc2O1` (configuration not stated) displayed a melting point of 147 to 148 °C.

Take `Cc1cccc2c1c(C(=O)CC1CCCCCC1)cn2CCO`: the melting point is 98 to 104 °C.

`O=C(OCc1ccccc1)N1C[C@@H]2CN(c3ccc(N4C[C@H](CO)OC4=O)cc3F)C[C@@H]2C1`: the melting point fell in the range of 168 to 171 °C.

Turning to `COC(=O)c1ccc(Cc2cn(CC(=O)N(C)C)c3ccc(NC(=O)CC4CCCC4)cc23)c(OC)c1`, the melting point fell in the range of 129 to 132 °C.

As to `COc1cc(-c2ccc(C=O)o2)ccc1Br`, the melting point was 127 to 128 °C.

The molecule `COc1c(C)c2c(c(O)c1C/C=C(\C)C1CCCC1C(=O)O)C(=O)OC2` (configuration not stated) displayed a melting point of 157 to 158 °C.

`COc1ccc(-c2cc(C(O)C(F)(F)F)[nH]c2-c2ccc(OC)cc2)cc1` (configuration not stated) came in with a melting point of 84 to 86 °C.

`O=C(CO)Nc1nc(CN2CCC(c3c[nH]c4ccccc34)CC2)cs1`: the melting point was in the range of 185 to 188 °C.

Regarding `c1cnc2cc(C34CCCN3CCC4)oc2c1`, the melting point lay in the range of 39 to 41 °C.

In turn, `CC(C)(C)OC(=O)N1CCN(c2ccc(NC=O)nc2)CC1` registered a melting point of 178 to 180 °C.

Consider `Cc1cc(C#N)sc1-c1ccc2c(c1)C(C)(C)OC(C(F)(F)F)N2` (configuration not stated), for which the melting point is 97 to 98 °C.
